In patent US20220370545A1, “INTEGRIN RECEPTOR ALPHA V BETA 3 AND ITS LIGAND INVOLVED IN CHRONIC ITCH” (North Carolina State University, priority 2019, published 2022):
One block for each molecule: values may come before it. Ends that are not written are not given here.

Tests used:
[1] = system: Integrin αvβ3 on DRG Sensory Neurons; assay: Fura-2 calcium imaging of periostin-induced calcium response in cultured DRG sensory neurons; type: cell-based, mouse
Experimental: DRGs were isolated from mice and dissociated in 1 mL of media containing 2.5 U/mL of dispase (Fisher Scientific, Hampton, New Hampshire, United States of America) and 2.5 mg/mL of collagenase (Fisher Scientific, Hampton, New Hampshire, United States of America). After dissociation, the cells were washed with complete media (DMEM (HiMedia Laboratories, Mumbai, India) with 10% FBS (Atlanta Biologicals, Flowery Branch, Georgia, United States of America) and 1% PenStrep (VWR International, Radnor, Pa., United States of America)) and pelleted at 1000 rpm for 15 minutes. Approximately 30 μL of the cell suspension was plated on 18 mm round glass slides with a coating of laminin (Sigma Aldrich, St. Louis, Miss., United States of America) and poly-L-lysine (Sigma Aldrich, St. Louis, Miss., United States of America) and incubated for 1.5 hours. Afterwards, 1 mL of complete media was added, and the cells were incubated overnight. All incubation steps were done at 37° C. with 5% CO2.
(§1) Before imaging, cells were incubated in 350 μL of complete media containing 1 μM Fura-2 AM (Enzo Life Sciences, Farmingdale, New York, United States of America) for 30 min at 37° C. with 5% CO2. During imaging, the cells were perfused with a buffer containing the following: 135 mM sodium chloride, 3.2 mM potassium chloride, 2.5 mM magnesium chloride, 2.8 mM calcium chloride, 667 μM monobasic sodium phosphate, 14.2 mM sodium bicarbonate, and 10.9 mM D-glucose (all from VWR International, Radnor, Pennsylvania, United States of America) with a pH between 7.00 and 7.40. The buffer and the holding plate were kept at 37° C. while imaging. Imaging data was collected on a TE200 inverted microscope using NIS Elements software (Nikon, Melville, New York, United States of America). Cells were exposed to 340 nm and 380 nm wavelengths for 100 ms and the A340/A380 ratio was calculated. Traces were analyzed using Excel and responses greater than 10% of the baseline were counted. Each data point in the scatter plots represented one coverslip.
(§2) Calcium Imaging: Calcium imaging will be performed on the DRG neurons as previously described (Pitake et al., 2018). Briefly, DRG neurons will be incubated for longer than 30 min in DMEM containing 1 μM of a fluorescent indicator Fura-2 AM (Enzo Life Sciences, Inc., Farmingdale, N.Y., United States of America). The neurons will be perfused in a standard bath solution containing 140 mM NaCl, 5 mM KCl, 2 mM MgCl2, 2 mM CaCl2, 10 mM Hepes and 10 mM D-glucose at pH 7.4 adjusted with NaOH. A calcium-free bath solution will be prepared by omitting 2 mM CaCl2 from the standard bath solution […] adding 5 mM EGTA. Fura-2 fluorescence excited at 340 and 380 nm and emission will be monitored at 510 nm with a digital CCD camera (Andor Clara DR-4152, Andor Technology Ltd, Belfast, United Kingdom). Data will be obtained by every 100 ms using an imaging software (NIS-Elements AR 4.13.04, Nikon Corporation, Tokyo, Japan) and analyzed by Microsoft Excel (Microsoft Corporation, Redmond, Wash., United States of America). Values of calcium responses will be normalized by dividing measured values (F) with average values of initial 5 frames (F0) of each cell and described as F/F0. In this study, changes in each response to an application with F/F0>0.1 will be regarded as positive. Cells not responding to 100 mM KCl, which is applied at the end of each experiment, will be regarded as non-neuronal cells and excluded from analysis.
Periostin (10 ug/ml) will be used to evoke calcium influx. This response has been optimized. The peptide inhibitors will be tested on DRG neurons to measure calcium influx in response to periostin. Data on calcium imaging will be presented by presenting each mouse±SEM. The IC50 value of the inhibitor will also be determined
Additional inhibitors were studied using the calcium imaging method described in Example 3. Briefly, the Fura2-AM calcium imaging method was performed on live dorsal root ganglia (DRG) neurons (ex vivo). […]

[2] = system: murine keratinocyte cell line (Balb/MK2); assay: TSLP-induced periostin production in Balb/MK2 keratinocytes (ELISA); type: cell-based, mouse; conditions: for TSLP-induced periostin release: pre-exposed 4 hrs to 10 μmol/l inhibitor, then TSLP 10 ng/ml for 24 h
Experimental: The murine keratinocyte cell line (Balb/MK2) was used in this study to determine the periostin production induced by TSLP. Cells were cultured in EMEM medium according to the previously described method (Fukuyama et al., 2018). Confluent cells were exposed to TSLP at 1 or 10 ng/ml in FBS-free medium for 24 hrs. Inhibitory effect of the JAK2 inhibitor, SD 1008 and the STAT3 inhibitor, niclosamide, on TSLP-induced periostin production was also quantified using the murine Balb/MK2 keratinocyte cell line. Confluent cells were pre-exposed for 4 hrs to SD 1008 (10 μmol/l) or niclosamide (10 μmol/l), before being exposed to the TSLP at 10 ng/ml for a further 24 h. After TSLP exposure, periostin levels in cell supernatant were determined by ELISA according to the manufacturer's instructions.

[3] = system: NC/Nga mice sensitized with Dermatophagoides farinae HDM; assay: House dust mite (HDM) allergic itch model in NC/Nga mice; type: in vivo, mouse
Experimental: C57BL6 mice (Jackson Labs, Ellsworth, Maine, United States of America) were applied daily with MC903 (4 nmol) and vehicle (97% ethanol) after brief anesthesia. Skin thickness was measured using cutimeter as described (Fukuyama et al., 2015). Scratching behavior was video-monitored for 30 min on Day 1 and Day 7. On Day 7 skin was collected from vehicle and MC903 treated mice for the Western Blot (WB) as described below. NC/Nga mice (Charles River, Yokohama, Japan) were sensitized and challenged with house dust mite (HDM) allergen (Dermatophagoides farina, Greer, Lenoir, N.C., United States of Amercia) as described previously (Fukuyama et al., 2018). In short, for sensitization, 30 μl of HDM in mineral oil (10 mg/ml) was applied topically to the clipped back twice weekly supported by tape stripping until visible lesions had developed. After development of visible lesions mice were treated daily either with vehicle cream or betamethasone dipropionate (0.1% in lipoderm, n=8). […] Scratching behavior was video monitored for 60 min period immediately after HDM on day 42. For periostin measurement, mice were sacrificed for determination of periostin in skin on day 43. A portion of back skin tissue were snap-frozen in liquid nitrogen. Briefly, samples were homogenized under liquid nitrogen, and the homogenates were taken in 200 μL RPMI 1640 medium containing 1 mmol/L Pefabloc. The amount of periostin was determined using ELISA according to the manufacturer's instruction.

[4] = molecular target: T1, TRPV1 receptor (Mus musculus, UniProt Q704Y3); assay: Capsaicin-induced calcium response in DRG neurons (specificity control); type: cell-based; conditions: capsaicin 1 μM
T1 construct: endogenous in cells; host or cells: primary mouse dorsal root ganglion neurons
Experimental: as §1, §2
Additional inhibitors were studied using the calcium imaging method described in Example 3. Briefly, the Fura2-AM calcium imaging method was performed on live dorsal root ganglia (DRG) neurons (ex vivo). The DRG neurons are pre-incubated with the inhibitors P11 (Catalog #4744, Tocris Bioscience, Bristol, United Kingdom) and LM609 (Catalog #MAB1876, Millipore Sigma, Burlington, Mass., United States of America) or vehicle for 10 minutes and further stimulated with periostin or capsaicin in the presence of inhibitors. For Echistatin (Catalog #3202/100U, R&D Biosystems, Minneapolis, Minn., United States of America), MK-0429, and SB273005 (Catalog #S75-40, Selleck Chemicals Llc, Houston, Tex., United States of America), the DRG neurons were perfused with a normal Locke buffer vehicle or modified Locke buffer as described below. The values were normalized with KCl ([…]) to identify neuronal responses in all the calcium response data below.

[5] = system: mouse cornea; assay: Eye wipes assay (corneal application); type: in vivo; conditions: wild-type mice, wiping measured for 1 minute
Experimental: All behavioral experiments were conducted during the light cycle at ambient temperature (23° C.). Behavioral assessment of scratching behavior was conducted as described previously (Mishra et al., 2011). Briefly, mice were injected intradermal into the nape of the neck with periostin (R&D), histamine, and chloroquine (all Millipore-Sigma) as previously described (Shimada and LaMotte, 2008). Compounds were diluted in PBS and the same was used as a vehicle. […] Additionally, cilengitide and periostin were combined together (mix) and injected i.d. into the dorsal neck of mouse. Scratching behavior was recorded for 30 minutes and data was presented in bouts per 30 minutes for mice. […] For eye wipes assay, periostin and capsaicin were dropped on mouse cornea and counted wipes for 1-minute. […] For dog's study, periostin (25 μg/25 μl) was injected in the dorsal neck (s.c.) and behavior was recorded and quantified for 30 minutes as “duration of pruritus manifestation” (DPM), as described earlier (Paps et al., 2016). […] When different raters separately scored a single tape, the ratings indicated high interrater reliability (coefficient of correlation, r>0.95). This method of itch readout in NHP has been used and accepted (Ko and Naughton, 2000). The behavior was recorded for 30 minutes duration and number of scratches quantified. […]

[6] = molecular target: integrin αvβ3 on mouse dorsal root ganglia (DRG) sensory neurons (mouse) (UniProt P43406); assay: cell-based or functional assay
Sequence of integrin αvβ3 on mouse dorsal root ganglia (DRG) sensory neurons (mouse) (P43406 31-1044, chain 1 of 2): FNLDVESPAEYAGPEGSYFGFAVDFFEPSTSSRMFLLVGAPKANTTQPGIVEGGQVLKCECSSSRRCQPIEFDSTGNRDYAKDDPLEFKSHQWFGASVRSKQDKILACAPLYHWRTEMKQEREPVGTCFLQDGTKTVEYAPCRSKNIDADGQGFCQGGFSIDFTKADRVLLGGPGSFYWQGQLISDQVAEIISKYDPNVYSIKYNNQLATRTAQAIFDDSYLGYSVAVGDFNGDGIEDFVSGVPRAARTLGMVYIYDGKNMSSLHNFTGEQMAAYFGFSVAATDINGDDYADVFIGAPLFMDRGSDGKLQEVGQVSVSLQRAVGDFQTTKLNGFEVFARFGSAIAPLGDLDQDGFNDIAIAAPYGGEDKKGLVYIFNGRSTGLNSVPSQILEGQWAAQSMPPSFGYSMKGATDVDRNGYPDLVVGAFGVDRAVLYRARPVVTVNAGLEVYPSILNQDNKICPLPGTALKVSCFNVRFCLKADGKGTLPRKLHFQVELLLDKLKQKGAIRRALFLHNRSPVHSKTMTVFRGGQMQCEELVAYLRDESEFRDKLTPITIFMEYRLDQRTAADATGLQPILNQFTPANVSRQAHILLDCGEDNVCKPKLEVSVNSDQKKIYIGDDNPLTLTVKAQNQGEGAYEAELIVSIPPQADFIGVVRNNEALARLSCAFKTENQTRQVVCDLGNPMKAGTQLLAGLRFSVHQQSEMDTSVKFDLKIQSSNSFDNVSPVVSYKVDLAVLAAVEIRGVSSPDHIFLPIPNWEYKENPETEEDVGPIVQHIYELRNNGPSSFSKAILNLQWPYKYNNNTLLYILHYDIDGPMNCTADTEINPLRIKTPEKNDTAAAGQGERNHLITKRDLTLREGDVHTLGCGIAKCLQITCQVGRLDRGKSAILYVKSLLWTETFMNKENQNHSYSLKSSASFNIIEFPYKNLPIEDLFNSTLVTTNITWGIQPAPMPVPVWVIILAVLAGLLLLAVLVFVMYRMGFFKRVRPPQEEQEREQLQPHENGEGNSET
Sequence of integrin αvβ3 on mouse dorsal root ganglia (DRG) sensory neurons (mouse) (O54890 26-787, chain 2 of 2, further chain): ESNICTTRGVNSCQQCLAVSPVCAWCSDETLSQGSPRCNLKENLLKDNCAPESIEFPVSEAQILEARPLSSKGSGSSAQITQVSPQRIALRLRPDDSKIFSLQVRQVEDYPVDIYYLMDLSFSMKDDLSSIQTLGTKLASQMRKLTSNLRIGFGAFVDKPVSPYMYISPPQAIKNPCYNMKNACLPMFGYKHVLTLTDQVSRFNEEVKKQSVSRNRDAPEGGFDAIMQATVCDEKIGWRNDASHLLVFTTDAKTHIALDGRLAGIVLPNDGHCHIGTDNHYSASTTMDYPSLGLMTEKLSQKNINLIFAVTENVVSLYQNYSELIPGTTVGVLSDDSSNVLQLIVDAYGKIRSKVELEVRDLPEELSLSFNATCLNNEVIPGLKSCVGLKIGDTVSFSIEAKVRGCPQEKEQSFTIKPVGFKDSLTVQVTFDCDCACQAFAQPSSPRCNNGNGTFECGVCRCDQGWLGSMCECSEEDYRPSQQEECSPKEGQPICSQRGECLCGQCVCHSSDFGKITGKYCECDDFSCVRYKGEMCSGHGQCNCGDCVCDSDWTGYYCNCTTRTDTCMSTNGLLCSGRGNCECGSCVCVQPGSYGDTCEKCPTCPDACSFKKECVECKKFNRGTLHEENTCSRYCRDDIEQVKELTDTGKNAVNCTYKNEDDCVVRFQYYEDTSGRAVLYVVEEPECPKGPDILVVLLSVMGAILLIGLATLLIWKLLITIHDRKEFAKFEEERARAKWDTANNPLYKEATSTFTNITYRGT

T1 sequence (Q704Y3 whole entry): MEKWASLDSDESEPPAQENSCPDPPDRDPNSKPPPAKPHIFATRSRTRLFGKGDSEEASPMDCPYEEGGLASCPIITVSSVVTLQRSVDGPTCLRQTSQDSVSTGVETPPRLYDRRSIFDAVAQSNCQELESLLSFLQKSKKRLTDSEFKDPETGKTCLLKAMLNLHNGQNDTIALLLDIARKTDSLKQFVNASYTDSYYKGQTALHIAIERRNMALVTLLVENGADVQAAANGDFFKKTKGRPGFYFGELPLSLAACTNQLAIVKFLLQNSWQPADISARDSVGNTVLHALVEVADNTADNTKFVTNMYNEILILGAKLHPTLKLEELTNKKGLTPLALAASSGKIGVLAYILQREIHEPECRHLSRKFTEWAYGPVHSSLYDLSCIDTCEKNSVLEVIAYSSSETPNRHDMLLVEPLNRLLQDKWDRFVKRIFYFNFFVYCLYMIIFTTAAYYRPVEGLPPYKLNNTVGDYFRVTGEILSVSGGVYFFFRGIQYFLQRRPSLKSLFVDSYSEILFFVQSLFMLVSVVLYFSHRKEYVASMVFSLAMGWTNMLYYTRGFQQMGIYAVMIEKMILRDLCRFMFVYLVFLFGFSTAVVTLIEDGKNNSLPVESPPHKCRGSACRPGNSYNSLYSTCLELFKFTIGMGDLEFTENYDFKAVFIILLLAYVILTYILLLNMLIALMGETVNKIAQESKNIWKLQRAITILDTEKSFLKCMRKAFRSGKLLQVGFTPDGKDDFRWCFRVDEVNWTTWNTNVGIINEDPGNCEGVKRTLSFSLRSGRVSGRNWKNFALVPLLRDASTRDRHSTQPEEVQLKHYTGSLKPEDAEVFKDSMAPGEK

Molecule: COc1ccc2c(c1)CC[C@@H]1[C@@H]2CC[C@]2(C)[C@@H](NCCCCCCN3C(=O)C=CC3=O)CC[C@@H]12 [U73122]
periostin-induced calcium response ([1]; phospholipase C inhibitor U73122 1 μM): not affected

Molecule: COC(=O)[C@@H]1[C@H](C(=O)OC)[C@H]2C=CC(=O)[C@@H]1N2Cc1ccccc1 [SD 1008]
TSLP-induced periostin release [2]: blocked

Molecule: O=C(Nc1ccc([N+](=O)[O-])cc1Cl)c1cc(Cl)ccc1O [niclosamide]
TSLP-induced periostin release [2]: blocked

Molecule: O=C1OC2(c3ccccc31)c1ccc(O)c(O)c1Oc1c2ccc(O)c1O [gallein]
periostin-induced calcium response ([1]; Gβγ blocker gallein 100 μM): not affected

Molecule: CCC(=O)OCC(=O)[C@@]1(OC(=O)CC)[C@@H](C)C[C@H]2[C@@H]3CCC4=CC(=O)C=C[C@]4(C)[C@@]3(F)[C@@H](O)C[C@@]21C [betamethasone dipropionate]
HDM-induced scratching ([3]; betamethasone dipropionate 0.1% in lipoderm topically, day 42): reduced
periostin skin levels ([3]; betamethasone dipropionate 0.1% in lipoderm topically, skin ELISA day 43): reduced significantly
body weight ([3]; daily betamethasone dipropionate 0.1%, application reduced to every other day on day 26): significant weight loss

Molecule: Echistatin
reduction in periostin-induced calcium influx ([1]; Echistatin 4 nM): around 80%
capsaicin response ([4]; in presence of Echistatin): remains unaffected

capsaicin response ([4]; MK-0429 80 nM or 160 nM): no changes
Molecule: COc1ccc([C@H](CC(=O)O)N2CCN(CCCc3ccc4c(n3)NCCC4)C2=O)cn1 [MK-0429, (S)-3-(6-methoxypyridin-3-yl)-3-(2-oxo-3-(3-(5,6,7,8-tetrahydro-1,8-naphthyridin-2-yl)propyl)-imidazol-idin-1-yl)propanoic acid]
periostin response (calcium influx) ([1]; higher concentration of MK-0429 (160 nM)): significant reduction

Molecule: His-Ser-Asp-Val-His-Lys-NH2 (HSDVHK-NH2) [P11]
reduction in periostin-induced calcium influx ([1]; P11 50 μg/ml, 10 minutes pre-incubation): about 78%
capsaicin response ([4]; P11 pre-treatment): no change

capsaicin response ([4]; SB273005 11 nM or 20 nM): No changes
Molecule: CNc1cccc(CCOc2ccc3c(c2)CN(CC(F)(F)F)C(=O)[C@H](CC(=O)O)C3)n1 [SB273005, (S)-2-(8-(2-(6-(methylamino)pyridin-2-yl)ethoxy)-3-oxo-2-(2,2,2-trifluoroethyl)-2,3,4,5-tetrahydro-1H-benzo-[c]azepin-4-yl)acetic acid]
reduction of periostin-induced calcium response ([1]; SB273005 11 nM, trend, not statistically significant): about 40%
periostin-induced calcium response ([1]; SB273005 higher concentration (20 nM)): significant reduction

Molecule: COc1cc(CNC(=O)CCCC/C=C/C(C)C)ccc1O [capsaicin]
eye-wiping response to ocular application [5]: robust eye-wipe behavior

inward current in SST-positive DRG neurons in response to periostin (10 µg/ml), whole-cell patch clamp [6]: 58.4 pA
Molecule: Recombinant Mouse Periostin (from UniProt Q62009 24-811) (ligand)

B1: TSLP: Th2 cytokine thymic stromal lymphopoietin, recombinant mouse (protein, UniProt Q9JIE6 20-140, looked up)
Thymic stromal lymphopoietin: YNFSNCNFTSITKIYCNIIFHDLTGDLKGAKFEQIEDCESKPACLLKIEYYTLNPIPGCPSLPDKTFARRTREALNDHCPGYPETERNDGTQEMAQEVQNICLNQTSQILRLWYSFMQSPE
release of periostin from keratinocytes ([2]; TSLP 1 and 10 ng/ml, 24 hrs): induced the release of periostin
